From patent publication US11332443B2, “Derivatives of halo quinabactin” (THE REGENTS OF THE UNIVERSITY OF CALIFORNIA, priority 2015, dated 2022)

Assays:
Type in all cases: biochemical
PYR1-HAB1 = target: T1, PYR1-HAB1 (Arabidopsis thaliana, UniProt O49686); test: PP2C activity assay, PYR1-HAB1 inhibition; details: for activity at 0.2 µM: 200 nM test compound, 100 nM HAB1 PP2C, 200 nM receptor, read-out: % Inhibition of PYR/PYL-HAB1 at 200 nM: PYR1; for IC50: dose response in triplicate, non-linear regression
T1 construct: 6xHis (N); made in house; host or cells: E. coli BL21[DE3]pLysS (stated for GST-HAB1)
T1 sequence (O49686 1-191): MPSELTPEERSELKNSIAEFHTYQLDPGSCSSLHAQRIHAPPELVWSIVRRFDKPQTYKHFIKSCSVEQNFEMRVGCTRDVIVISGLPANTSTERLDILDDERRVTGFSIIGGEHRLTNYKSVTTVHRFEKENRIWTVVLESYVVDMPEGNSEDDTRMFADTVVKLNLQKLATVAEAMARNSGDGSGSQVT
T1 sequence (Q9CAJ0 23-511 partner): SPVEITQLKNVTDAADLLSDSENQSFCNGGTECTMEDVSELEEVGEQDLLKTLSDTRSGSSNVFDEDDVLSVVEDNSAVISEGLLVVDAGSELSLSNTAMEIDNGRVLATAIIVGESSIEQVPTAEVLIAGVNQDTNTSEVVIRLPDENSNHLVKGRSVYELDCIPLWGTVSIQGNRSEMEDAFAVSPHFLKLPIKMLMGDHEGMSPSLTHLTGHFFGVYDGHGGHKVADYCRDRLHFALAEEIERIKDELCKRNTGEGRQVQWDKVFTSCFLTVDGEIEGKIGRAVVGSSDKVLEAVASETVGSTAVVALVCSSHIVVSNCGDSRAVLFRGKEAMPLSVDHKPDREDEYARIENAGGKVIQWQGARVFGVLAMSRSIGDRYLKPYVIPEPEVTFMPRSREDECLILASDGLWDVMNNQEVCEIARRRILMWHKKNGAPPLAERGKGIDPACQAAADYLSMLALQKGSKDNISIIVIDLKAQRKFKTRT
Text: (§1) The protein HAB1, a type 2 protein phosphatase (PP2C), is inhibited by PYR/PYL proteins in dependence of abscisic acid or other agonists. The potency of an agonist correlates with the level of inhibition of the PP2C, and therefore the IC50 (receptor-HAB1) can be used to compare the relative activity of different chemical analogues. Since inhibition of PP2C correlates to inhibition of seed-germination and increase in plant water-use efficiency, it serves as a powerful tool to quantify biological potential of a chemical acting as an analogue of abscisic acid.
(§2) HAB1 and PYL proteins were expressed and purified as described in Park et al. ((2009) Science 324(5930):1068-1071), with minor modifications. GST-HAB1 was produced by expression in BL21[DE3]pLysS host cells with an expression clone containing the HAB1 cDNA cloned into pGex-2T. Transformed E. coli cells were pre-cultured overnight, transferred to LB medium and cultured at 30° C. to culture A600 of ˜0.5 OD units. The culture was then cooled on ice and MnCl2 added to 4 mM and IPTG added to 0.3 mM. After 16 hours incubation at 15° C., cells were harvested and recombinant proteins were purified on glutathione agarose as described in Park et al. To obtain 6×His-PYL receptor fusion proteins, we used expression constructs previously described by Okamoto et al. 2013, (PNAS 110(29): 12132-12137).
(§3) PP2C activity assays using recombinant receptors and PP2Cs were carried out as follows: purified proteins were pre-incubated in 160 μl assay buffer containing (100 mM Tris-HCl-pH7.9, 100 mM NaCl, 3 μg bovine serum albumin and 0.1% 2-mercaptoethanol), 1 mM MnCl2 with carrier solvent (DMSO), quinabactin or quinabactin analogs (compounds of the present invention) for 30 minutes at room temperature. Reactions were started by adding 40 μL of a reaction solution containing 25 mM 4-nitrophenyl phosphate in assay buffer, after which absorbance measurements were immediately collected (405 nm) using a Wallac plate reader. […] Inhibition is indicated by reduced PP2C activity, which is expressed as a percentage of the control PP2C activity values that were obtained from assays containing carrier solvent instead but no test compound.

PYL1-HAB1 = target: T2, PYL1-HAB1 (Arabidopsis thaliana, UniProt Q8VZS8); test: PP2C activity assay, PYL1-HAB1 inhibition; details: 200 nM test compound, 100 nM HAB1 PP2C, 200 nM receptor; read-out: % Inhibition of PYR/PYL-HAB1 at 200 nM: PYL1
T2 construct: 6xHis (N); made in house; host or cells: E. coli BL21[DE3]pLysS (stated for GST-HAB1)
T2 sequence (Q8VZS8 1-221): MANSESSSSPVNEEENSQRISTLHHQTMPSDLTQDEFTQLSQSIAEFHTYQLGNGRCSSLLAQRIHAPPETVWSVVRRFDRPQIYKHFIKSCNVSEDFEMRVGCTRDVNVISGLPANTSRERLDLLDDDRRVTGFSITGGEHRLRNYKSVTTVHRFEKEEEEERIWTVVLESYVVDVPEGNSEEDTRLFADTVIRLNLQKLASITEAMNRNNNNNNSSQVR
T2 sequence (Q9CAJ0 23-511 partner): T1 sequence (Q9CAJ0 23-511 partner)
Text: as §1, §2
PP2C activity assays using recombinant receptors and PP2Cs were carried out as follows: purified proteins were pre-incubated in 160 μl assay buffer containing (100 mM Tris-HCl-pH7.9, 100 mM NaCl, 3 μg bovine serum albumin and 0.1% 2-mercaptoethanol), 1 mM MnCl2 with carrier solvent (DMSO), quinabactin or quinabactin analogs (compounds of the present invention) for 30 minutes at room temperature. Reactions were started by adding 40 μL of a reaction solution containing 25 mM 4-nitrophenyl phosphate in assay buffer, after which absorbance measurements were immediately collected (405 nm) using a Wallac plate reader. Reactions contained 100 nM HAB1 PP2C and 200 nM receptor and 200 nM test compound. Inhibition is indicated by reduced PP2C activity, which is expressed as a percentage of the control PP2C activity values that were obtained from assays containing carrier solvent instead but no test compound.

PYL2-HAB1 = target: T3, PYL2-HAB1 (Arabidopsis thaliana, UniProt O80992); test: PP2C activity assay, PYL2-HAB1 inhibition; details: for percent inhibition at 0.2 µM: 200 nM test compound, 100 nM HAB1 PP2C, 200 nM receptor, read-out: % Inhibition of PYR/PYL-HAB1 at 200 nM: PYL2; for IC50: dose response in triplicate, non-linear regression
T3 construct: 6xHis (N); made in house; host or cells: E. coli BL21[DE3]pLysS (stated for GST-HAB1)
T3 sequence (O80992 1-190): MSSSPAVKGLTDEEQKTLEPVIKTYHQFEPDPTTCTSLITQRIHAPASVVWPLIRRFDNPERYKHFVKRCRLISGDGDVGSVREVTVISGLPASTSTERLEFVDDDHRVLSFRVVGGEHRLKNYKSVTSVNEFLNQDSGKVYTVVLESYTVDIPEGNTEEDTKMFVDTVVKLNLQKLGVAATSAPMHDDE
T3 sequence (Q9CAJ0 23-511 partner): T1 sequence (Q9CAJ0 23-511 partner)
Text: as §1, §2, §3

SMILES	activity at 0.2 µM (PYR1-HAB1)	IC50 (PYR1-HAB1)	activity at 0.2 µM (PYL1-HAB1)	percent inhibition at 0.2 µM (PYL2-HAB1)	IC50 (PYL2-HAB1)
CCCN1C(=O)CCc2cc(NS(=O)(=O)Cc3ccc(C)cc3)cc(F)c21 [HQ1]	14.7%	37.5 nM	11.8%	28%	42 nM
CCCN1C(=O)CCc2cc(NS(=O)(=O)Cc3ccc(C)cc3)cc(Cl)c21 [HQ2]	37.9%	47.7 nM	20.3%	38.9%	74 nM
C=CCN1C(=O)CCc2cc(NS(=O)(=O)Cc3ccc(C)cc3)cc(F)c21 [HQ28]	–	62.3 nM	–	–	401 nM
CCN1C(=O)CCc2cc(NS(=O)(=O)Cc3ccc(C)cc3)cc(F)c21 [HQ29]	–	17.2 nM	–	–	83 nM
CCN1C(=O)CC(C)c2cc(NS(=O)(=O)Cc3ccc(C)cc3)cc(F)c21 (stereo not shown) [HQ30, N-(1-ethyl-8-fluoro-4-methyl-2-oxo-3,4-dihydroquinolin-6-yl)-1-(p-tolyl)methanesulfonamide]	–	39.6 nM	–	–	11 nM
C=CCN1C(=O)CC(C)c2cc(NS(=O)(=O)Cc3ccc(C)cc3)cc(F)c21 (stereo not shown) [HQ31]	–	164 nM	–	–	52 nM
Cc1ccc(CS(=O)(=O)Nc2cc(F)c3c(c2)C(C)CC(=O)N3C(C)C)cc1 (stereo not shown) [HQ32]	–	408 nM	–	–	40 nM
C=CCN1C(=O)CC(C)c2cc(NS(=O)(=O)Cc3ccc(CC)cc3)cc(F)c21 (stereo not shown) [HQ33]	–	204 nM	–	–	61 nM
CCc1ccc(CS(=O)(=O)Nc2cc(F)c3c(c2)C(C)CC(=O)N3C(C)C)cc1 (stereo not shown) [HQ34]	–	462 nM	–	–	26 nM
CCc1ccc(CS(=O)(=O)Nc2cc(F)c3c(c2)C(C)CC(=O)N3CC)cc1 (stereo not shown) [HQ35]	–	37 nM	–	–	12 nM
C=CCN1C(=O)CC(C)c2cc(NS(=O)(=O)Cc3ccc(COC)cc3)cc(F)c21 (stereo not shown) [HQ36]	–	126 nM	–	–	32 nM
COCc1ccc(CS(=O)(=O)Nc2cc(F)c3c(c2)C(C)CC(=O)N3C(C)C)cc1 (stereo not shown) [HQ37]	–	227 nM	–	–	33 nM
CCN1C(=O)CC(C)c2cc(NS(=O)(=O)Cc3ccc(COC)cc3)cc(F)c21 (stereo not shown) [HQ38]	–	103 nM	–	–	26 nM
Cc1ccc(CS(=O)(=O)Nc2cc(F)c3c(c2)C(C)CC(=O)N3C2CC2)cc1 (stereo not shown) [HQ39]	–	1260 nM	–	–	77 nM
CCCN1C(=O)CCc2cc(NS(=O)(=O)Cc3ccc(C)cc3)cc(Br)c21 [HQ40]	–	165 nM	–	–	239 nM
CCCN1C(=O)CCc2cc(NS(=O)(=O)Cc3ccc(C)cc3)cc(C#N)c21 [HQ41]	–	967 nM	–	–	1450 nM

SMILES	activity at 0.2 µM (PYR1-HAB1)	IC50 (PYR1-HAB1)	activity at 0.2 µM (PYL1-HAB1)	percent inhibition at 0.2 µM (PYL2-HAB1)	IC50 (PYL2-HAB1)
CCN1C(=O)CC(C)c2cc(NS(=O)(=O)Cc3ccc(C#N)cc3F)cc(F)c21 (stereo not shown) [HQ42]	–	589 nM	–	–	247 nM
CCN1C(=O)CC(C)c2cc(NS(=O)(=O)Cc3ccc(Cl)cc3Cl)cc(F)c21 (stereo not shown) [HQ43]	–	> 10000 nM	–	–	2010 nM
CCN1C(=O)CC(C)c2cc(NS(=O)(=O)Cc3ccc(C(F)(F)F)cc3)cc(F)c21 (stereo not shown) [HQ44]	–	2370 nM	–	–	250 nM
CCN1C(=O)CC(C)c2cc(NS(=O)(=O)c3ccccc3)cc(F)c21 (stereo not shown) [HQ45]	–	> 10000 nM	–	–	7730 nM
CCCN1C(=O)CCc2c1ccc(NS(=O)(=O)Cc1ccc(C)cc1)c2F [HQ46]	–	694 nM	–	–	1460 nM
CCCN1C(=O)CCc2cc(NS(=O)(=O)Cc3ccc(C)cc3)c(F)cc21 [HQ47, N-(7-fluoro-2-oxo-1-propyl-3,4-dihydroquinolin-6-yl)-1-(p-tolyl)methanesulfonamide]	–	172 nM	–	–	182 nM
CCN1C(=O)CC(C)c2cc(NS(=O)(=O)Cc3ccc(C)cc3F)cc(F)c21 (stereo not shown) [HQ48]	–	56 nM	–	–	23 nM
CCN1C(=O)CC(C)c2cc(NS(=O)(=O)Cc3ccc(C#N)cc3)cc(F)c21 (stereo not shown) [HQ49]	–	405 nM	–	–	112 nM
CCN1C(=O)CC(C)c2cc(NS(=O)(=O)Cc3ccc(C)cc3Br)cc(F)c21 (stereo not shown) [HQ50]	–	> 10000 nM	–	–	4470 nM
CCN1C(=O)CC(C)c2cc(NS(=O)(=O)Cc3ccc(C)cc3C)cc(F)c21 (stereo not shown) [HQ51]	–	> 10000 nM	–	–	930 nM
CCN1C(=O)CC(C)c2cc(NS(=O)(=O)Cc3ccc(C)c(F)c3)cc(F)c21 (stereo not shown) [HQ52]	–	444 nM	–	–	46 nM
CCN1C(=O)CC(C)c2cc(NS(=O)(=O)Cc3ccc(C)cn3)cc(F)c21 (stereo not shown) [HQ53]	–	153 nM	–	–	160 nM
CCN1C(=O)CC(C)c2cc(NS(=O)(=O)Cc3ccc(Cl)cn3)cc(F)c21 (stereo not shown) [HQ54]	–	512 nM	–	–	234 nM
CCN1C(=O)CC(C)c2cc(NS(=O)(=O)Cc3ccc(C)nc3)cc(F)c21 (stereo not shown) [HQ55]	–	> 10000 nM	–	–	1600 nM
CCN1C(=O)CC(C)c2cc(NS(=O)(=O)Cc3ccc(Cl)nc3)cc(F)c21 (stereo not shown) [HQ56]	–	1250 nM	–	–	486 nM
CCN1C(=O)CC(C)c2cc(NS(=O)(=O)Cc3ccc(Cl)s3)cc(F)c21 (stereo not shown) [HQ57]	–	953 nM	–	–	94 nM
